Active and inactive are the calls of the source. No cut-off for these calls is given here.
Legend:
H4 = assay: Cytotoxicity against human H4 cells assessed as reduction of viability; assay type: cell-based
Gamma-secretase [1] = assay: Effect on gamma-secretase activity in human H4 cells expressing APP695 assessed as increase in Amyloid beta-38 formation by LPECL assay; assay type: cell-based; conditions: read-out: IC50 (the source's name)
Gamma-secretase [2] = assay: Effect on gamma-secretase activity in human H4 cells expressing APP695 assessed as reduction of Amyloid beta-40 formation LPECL assay; assay type: cell-based
Gamma-secretase [3] = assay: Effect on gamma-secretase activity in human H4 cells expressing APP695 assessed as reduction of Amyloid beta42 formation LPECL assay; assay type: cell-based
[4] = target: T1, Prostaglandin G/H synthase 2 (Homo sapiens) (UniProt P35354); assay: Activity of COX2 at 10 uM
T1 sequence (whole entry): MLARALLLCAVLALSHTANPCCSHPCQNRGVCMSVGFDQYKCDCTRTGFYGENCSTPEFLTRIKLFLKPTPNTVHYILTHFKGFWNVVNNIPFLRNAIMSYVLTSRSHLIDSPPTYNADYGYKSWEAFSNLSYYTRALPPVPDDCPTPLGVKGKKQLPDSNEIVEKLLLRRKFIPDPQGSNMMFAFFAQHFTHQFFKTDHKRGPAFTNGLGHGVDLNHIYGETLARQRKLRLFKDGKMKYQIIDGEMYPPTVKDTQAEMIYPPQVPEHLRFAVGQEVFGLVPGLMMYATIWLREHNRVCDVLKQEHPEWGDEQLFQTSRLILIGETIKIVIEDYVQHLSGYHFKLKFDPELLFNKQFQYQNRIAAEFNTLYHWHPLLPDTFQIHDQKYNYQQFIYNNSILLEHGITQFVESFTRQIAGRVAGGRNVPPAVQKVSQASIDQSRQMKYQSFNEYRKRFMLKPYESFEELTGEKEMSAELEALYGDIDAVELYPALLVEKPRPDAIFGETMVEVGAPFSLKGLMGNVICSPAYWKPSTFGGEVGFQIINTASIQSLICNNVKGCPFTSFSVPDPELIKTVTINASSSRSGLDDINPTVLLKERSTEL

[5] = target: Prostaglandin G/H synthase 1 (Homo sapiens) (UniProt P23219); assay: Activity of COX1 at 10 uM
Prostaglandin G/H synthase 1 (Homo sapiens), sequence (P23219 whole entry): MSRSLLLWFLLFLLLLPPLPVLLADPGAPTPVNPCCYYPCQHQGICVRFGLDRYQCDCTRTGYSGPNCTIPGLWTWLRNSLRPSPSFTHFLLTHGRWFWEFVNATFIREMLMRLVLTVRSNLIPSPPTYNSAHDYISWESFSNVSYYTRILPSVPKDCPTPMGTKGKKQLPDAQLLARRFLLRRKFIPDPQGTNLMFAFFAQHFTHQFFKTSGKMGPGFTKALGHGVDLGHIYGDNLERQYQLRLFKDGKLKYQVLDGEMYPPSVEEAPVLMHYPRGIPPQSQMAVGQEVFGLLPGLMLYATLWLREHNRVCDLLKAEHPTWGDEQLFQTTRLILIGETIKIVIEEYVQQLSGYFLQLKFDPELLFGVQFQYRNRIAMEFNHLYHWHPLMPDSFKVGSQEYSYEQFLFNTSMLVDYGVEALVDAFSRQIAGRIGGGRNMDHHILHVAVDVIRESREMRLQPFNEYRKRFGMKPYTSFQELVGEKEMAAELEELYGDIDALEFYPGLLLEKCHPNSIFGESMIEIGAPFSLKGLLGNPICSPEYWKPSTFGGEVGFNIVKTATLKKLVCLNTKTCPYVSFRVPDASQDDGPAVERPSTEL

SMILES | EC50 (Gamma-secretase [1]) [µM] | IC50 (Gamma-secretase [2]) [µM] | IC50 (Gamma-secretase [3]) [µM] | Activity [4] | Activity [5] | Activity (H4) [µM]
CC(C)c1cc(C(C)C)c(S(=O)(=O)n2c3ccc(Cl)cc3c3ccc(C(C)C(=O)O)cc32)c(C(C)C)c1 (configuration not stated) | 9.3 | > 20 | 8.5 |  |  | 
O=C(O)COc1ccc2c3ccccc3n(S(=O)(=O)c3cc(F)cc(F)c3)c2c1 | 13 | > 40 | > 40 |  |  | 40
CCCc1ccc(S(=O)(=O)n2c3ccccc3c3ccc(OCC(=O)O)cc32)cc1 |  | > 40 | 38 |  |  | > 40
O=C(O)COc1ccc2c3ccccc3n(S(=O)(=O)c3ccc(Cl)cc3)c2c1 | 32 | > 40 | 32 |  |  | 40
CCCCCCCCc1ccc(S(=O)(=O)n2c3ccccc3c3ccc(OCC(=O)O)cc32)cc1 |  | > 40 | 37 |  |  | > 40
C[C@H](c1ccc(F)cc1CCCC(=O)O)N(c1cc(F)ccc1F)S(=O)(=O)c1ccc(Cl)cc1 |  |  | 0.0071 |  |  | 
O=C(O)COc1ccc2c3ccccc3n(S(=O)(=O)c3ccccc3Br)c2c1 | > 40 | > 40 | > 40 |  |  | 40

Second part, led by results:

EC50 (Gamma-secretase [1]) [µM] | IC50 (Gamma-secretase [2]) [µM] | IC50 (Gamma-secretase [3]) [µM] | Activity [4] | Activity [5] | SMILES | Activity (H4) [µM]
13 | > 40 | 39 |  |  | Cc1ccc(S(=O)(=O)n2c3ccccc3c3ccc(OCC(=O)O)cc32)cc1 | 20
16 | > 40 | > 40 |  |  | O=C(O)COc1ccc2c3ccccc3n(S(=O)(=O)c3cccc([N+](=O)[O-])c3)c2c1 | 40
> 40 | > 40 | > 40 |  |  | O=C(O)COc1ccc2c3ccccc3n(S(=O)(=O)c3cc(C(F)(F)F)cc(C(F)(F)F)c3)c2c1 | 20
> 40 | > 40 | > 40 |  |  | O=C(O)COc1ccc2c(c1)[nH]c1ccccc12 | > 40
5.8 | > 40 | 2.9 |  |  | CCCCCCCCCCn1c2ccc(Cl)cc2c2ccc(C(C)C(=O)O)cc21 (configuration not stated) | 
7.8 | 19 | 7.5 | inactive | inactive | CC(C)c1cc(C(C)C)c(S(=O)(=O)n2c3ccccc3c3ccc(OCC(=O)O)cc32)c(C(C)C)c1 | 20
30 | > 40 | 17 |  |  | CCCCCCCCCn1c2ccccc2c2ccc(OCC(=O)O)cc21 | > 40
24 | > 40 | 19 |  |  | CCCCCCCCn1c2ccccc2c2ccc(OCC(=O)O)cc21 | > 40
13 | 40 | 24 |  |  | O=C(O)COc1ccc2c3ccccc3n(S(=O)(=O)c3ccc(-c4ccccc4)cc3)c2c1 | 20
 | > 40 | 11 |  |  | CCCCCCCCCCn1c2ccccc2c2ccc(OCC(=O)O)cc21 | > 40
